Data as given in patent US7816393B2, “Isoindoline compounds and methods of their use” (Celgene Corporation, priority 2008, dated 2010).

melting point: 334 to 336 °C
SMILES: NC(=O)C(CCC(=O)O)N1Cc2c(N)cccc2C1=O (stereo not shown) [Example 5.2, 4-(4-Amino-1-oxo-1,3-dihydro-isoindol-2-yl)-4-carbamoyl-butyric acid]
